Test results: patent US9765075B2, “Substituted bridged urea analogs as sirtuin modulators” (GLAXOSMITHKLINE LLC, priority 2013, dated 2017)
Read-outs that look alike come from different tables or passages of the source.

Target: T1, SIRT1 (Homo sapiens, UniProt Q96EB6)
T1 sequence (Q96EB6 1-747): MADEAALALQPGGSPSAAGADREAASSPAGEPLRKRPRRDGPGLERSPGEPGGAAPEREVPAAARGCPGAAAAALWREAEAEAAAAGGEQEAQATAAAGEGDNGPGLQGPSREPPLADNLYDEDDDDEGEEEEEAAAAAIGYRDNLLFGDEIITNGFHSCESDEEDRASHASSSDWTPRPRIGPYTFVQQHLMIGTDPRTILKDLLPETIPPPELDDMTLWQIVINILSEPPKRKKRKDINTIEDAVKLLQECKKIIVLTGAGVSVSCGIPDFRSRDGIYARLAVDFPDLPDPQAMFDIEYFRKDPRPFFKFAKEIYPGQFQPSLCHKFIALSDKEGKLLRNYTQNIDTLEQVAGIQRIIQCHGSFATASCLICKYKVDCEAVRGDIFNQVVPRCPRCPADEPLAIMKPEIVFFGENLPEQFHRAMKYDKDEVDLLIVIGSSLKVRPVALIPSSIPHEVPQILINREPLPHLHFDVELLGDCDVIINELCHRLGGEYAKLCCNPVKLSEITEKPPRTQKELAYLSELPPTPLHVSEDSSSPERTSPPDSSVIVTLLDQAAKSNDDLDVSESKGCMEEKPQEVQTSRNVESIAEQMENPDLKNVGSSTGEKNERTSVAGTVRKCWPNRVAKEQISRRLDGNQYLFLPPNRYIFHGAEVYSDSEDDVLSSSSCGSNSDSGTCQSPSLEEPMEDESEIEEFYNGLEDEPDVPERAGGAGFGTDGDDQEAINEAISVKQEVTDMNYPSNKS
Experiment: Trp mass spectrometry assay (SIRT1 activation)
Assay type: biochemical
Details: for Emax: percent maximum fold activation of SIRT1, read-out: Tryp % Fold Act
Procedure, shortened: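 N-His-tagged SIRT1 (10 nM), expressed in E. coli, was incubated with 0.5 μM Ac-RHKK(Ac)W-NH2 peptide and 120 μM NAD+ for 25 min at 25 °C in HEPES pH 7.5 with […]. The reaction was stopped with formic acid and O-acetyl-ADP-ribose or deacetylated peptide was quantified by mass spectrometry. Results are given as EC1.5 and percent maximal activation relative to DMSO control.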

[1] = Trp mass spectrometry assay, EC1.5 = concentration giving 150% activation of SIRT1
[2] = Trp mass spectrometry assay, EC1.5 = concentration of test compound that results in 150% activation of SIRT1
[3] = concentration of test compound that results in 150% activation of SIRT1, Trp peptide substrate

SMILES | Tryp AVG EC1.5 (μM) [1] | Emax (Trp mass spectrometry assay) | Tryp AVG EC1.5 (μM) [2] | Tryp AVG EC1.5 (μM) [3] | Emax (Trp peptide substrate)
C[C@@H](N)CS(=O)(=O)c1cccc(-c2ccc3c(n2)N(C(=O)Nc2cc(-c4ccnn4C)nc(-c4ccnn4C)c2)[C@H]2CCN3C2)c1 [Example 780] | A (EC1.5<1 μM) | ≥ 150% | – | – | –
O=C(Nc1ccncn1)N1c2nc(-c3cccc(C(F)(F)F)c3)ccc2N2CC[C@@H]1C2 [Example 202] | – | ≥ 150% | B (EC1.5 1-25 μM) | – | –
O=C(Nc1ccncc1F)N1c2nc(-c3ccccc3C(F)(F)F)ccc2N2CC[C@H]1C2 [Example 152] | – | ≥ 150% | C (EC1.5>25 μM) | – | –
Cc1cc(-c2ccc3c(n2)N(C(=O)Nc2cnn(C)c2)[C@H]2CCN3C2)ccn1 [Example 482] | – | – | – | B (EC1.5 1-25 μM) | ≥ 150%
Cc1cncc(-c2ccc3c(n2)N(C(=O)Nc2ccccn2)[C@H]2CCN3C2)c1 [Example 325] | – | – | – | A (EC1.5<1 μM) | ≥ 150%
CN(C)c1cccc(-c2ccc3c(n2)N(C(=O)Nc2ccccn2)[C@H]2CCCN3C2)c1 [Example 386] | – | – | – | B (EC1.5 1-25 μM) | ≥ 150%
COc1cc(NC(=O)N2c3nc(-c4ccnc(N5CC[C@@H](F)C5)c4)ccc3N3CC[C@H]2C3)ncn1 [Example 424] | – | – | – | B (EC1.5 1-25 μM) | ≥ 150%
O=C(NCCCn1ccnc1)N1c2nc(-c3cccc(C(F)(F)F)c3)ccc2N2CC[C@H]1C2 [Example 627] | B (EC1.5 1-25 μM) | ≥ 150% | – | – | –
O=C(Nc1cnccn1)N1c2nc(-c3cc(F)cc(F)c3)ccc2N2CC[C@H]1C2 [Example 397] | – | – | – | C (EC1.5>25 μM) | ≥ 150%
Cc1ccc(-c2ccc(NC(=O)N3c4nc(-c5cccc(C(F)(F)F)c5)ccc4N4CC[C@H]3C4)cc2)o1 [Example 582] | – | – | – | B (EC1.5 1-25 μM) | ≥ 150%
CN(C)Cc1cccc(-c2ccc3c(n2)N(C(=O)Nc2ccccn2)[C@H]2CCN3C2)c1 [Example 343] | – | – | – | B (EC1.5 1-25 μM) | ≥ 150%
CS(=O)(=O)c1cccc(-c2ccc3c(n2)N(C(=O)Nc2cc(-c4cnco4)ccn2)[C@H]2CCN3C2)c1 [Example 723] | A (EC1.5<1 μM) | ≥ 150% | – | – | –
Cn1ccc(NC(=O)N2c3nc(-c4cccc(OC(F)(F)F)c4)ccc3N3CC[C@H]2C3)n1 [Example 177] | – | ≥ 150% | A (EC1.5<1 μM) | – | –
O=C(Nc1cnccn1)N1c2nc(-c3cncc(F)c3)ccc2N2CC[C@H]1C2 [Example 400] | – | – | – | B (EC1.5 1-25 μM) | ≥ 150%
COc1cncc(NC(=O)N2c3nc(-c4ccnc(C)c4)ccc3N3CC[C@H]2C3)n1 [Example 499] | – | – | – | A (EC1.5<1 μM) | ≥ 150%
Cc1cc(-c2ccc3c(n2)N(C(=O)Nc2cnccn2)[C@H]2CCN3C2)ccn1 [Example 222] | – | – | – | A (EC1.5<1 μM) | ≥ 150%
O=C(Nc1ccccn1)N1c2nc(-c3cncc(C(F)(F)F)c3)ccc2N2CCC[C@H]1C2 [Example 369] | – | – | – | A (EC1.5<1 μM) | ≥ 150%
O=C(Nc1cccnc1)N1c2nc(-c3cccc(C(F)(F)F)c3)ccc2N2C[C@@H](O)[C@H]1C2 [Example 663] | A (EC1.5<1 μM) | ≥ 150% | – | – | –
O=C(Nc1ccncc1F)N1c2nc(-c3cccc(Cl)c3)ccc2N2CC[C@H]1C2 [Example 24] | – | ≥ 150% | – | – | –
O=C(NCc1ccc(NC(=O)N2c3nc(-c4cccc(C(F)(F)F)c4)ccc3N3CC[C@H]2C3)cc1)OC[C@@H]1[C@@H]2CCC#CCC[C@@H]21 [Example 796] | B (EC1.5 1-25 μM) | ≥ 150% | – | – | –
O=C(Nc1cccc(-c2cnco2)c1)N1c2nc(N3CCC[C@@H](C(F)(F)F)C3)ccc2N2CC[C@H]1C2 [Example 717] | A (EC1.5<1 μM) | ≥ 150% | – | – | –
Cc1cc(OCC(O)CO)nc(NC(=O)N2c3nc(-c4cccc(Cl)c4)ccc3N3CC[C@H]2C3)n1 (some centres unmarked) [Example 55] | – | ≥ 150% | – | – | –
N#Cc1ccccc1-c1ccc2c(n1)N(C(=O)Nc1cnccn1)[C@H]1CCCN2C1 [Example 450] | – | – | – | B (EC1.5 1-25 μM) | ≥ 150%
